Laboratory results as given in article PMC8919051, “Metabolome and Whole-Transcriptome Analyses Reveal the Molecular Mechanisms Underlying Hypoglycemic Nutrient Metabolites Biosynthesis in Cyclocarya paliurus Leaves During Different Harvest Stages” (Frontiers in Nutrition, 2022).

Target: α-amylase (EC 3.2.1.1)
Assay: α-amylase activity kit, colorimetric at […] nm
Assay type: biochemical

## O=C(/C=C/c1ccc(O)c(O)c1)O[C@@H]1C[C@@](O)(C(=O)O)C[C@@H](O)[C@@H]1O [neochlorogenic acid]
  IC50: 230 µM

## COc1cc(C(=O)O)ccc1O [vanillic acid]
  IC50: 330 µM
